Entries after “also recorded” stand apart in the source; their conditions may differ.
Assays:
rats = experiment: Toxicology: organs sectioned and examined after dosing; type: in vivo; conditions: for Toxicology: liver, lung, pancreas, spleen, heart and kidney (histology): two animals examined, findings per animal
Procedure: In at least two of the animals in each group, the pancreas, right kidney and part of the liver, heart, spleen, and lung were removed and evaluated for toxic effects.
The toxicology of animals receiving some of the compounds of the present invention IP and/or oral was examined. At the time of sacrifice samples of liver, pancreas, heart, lung, spleen and kidney were removed, visually inspected, and immersion fixed in Bouin's solution for a minimum of 48 hours. All organs were then sectioned and examined for evidence of necrosis, inflammation, hemorrhage, and possible tumors. The major veins in each tissue were also examined for distention, especially in the liver and pancreas, and any other abnormalities are compared to known histopathological states. In addition to the above, the heart was examined for evidence of fibrosis in the muscular walls, and to compare the thickness of the ventricular walls. The pancreas was examined mainly for calcium deposits, while the lung was checked for signs of any exudates or hemorrhage, especially in the alveolar spaces. Finally, the kidney was examined mainly for microscopic hemorrhages, tubular necrosis or alterations in the glomeruli in the cortex.
In this example, the effects of RC-MC-30 were compared with those of lonidamine in sexually mature rats. As discussed above, each of the rats (8 total) received a single injection and were sacrificed five days after injection and examined.

[1] = tested on: Salmonella Typhimurium TA 100; experiment: Ames test for mutagenicity (plate assay, colony count); conditions: 48 hours at 37° C.; for Ames test (+)S9 0.1 mg/pl. / Ames test (+)S9 1 mg/pl. / Ames test (+)S9 10 mg/pl.: (+)S9 mix; for Ames test (−)S9 0.1 mg/pl. / Ames test (−)S9 1 mg/pl. / Ames test (−)S9 10 mg/pl.: (−)S9 mix
Male Long Evans rats = experiment: In vivo antispermatogenic testing in Long Evans rats; conditions: for Mortality (25 mg/kg) / Response 25 mg/kg: 25 mg/kg single i.p. injection; for Response 25 mg/kg / Response 200 mg/kg: animals responding out of animals surviving, five days following injection; for Mortality (200 mg/kg) / Response 200 mg/kg: 200 mg/kg single i.p. injection

## CCCOC(=O)c1nn(Cc2ccc(Cl)cc2Cl)c2ccccc12 [RC-MC-158, 1-[(2,4-dichlorobenzyl)-1H-indazole]-3-carboxylic acid propyl ester]
rats; 25 mg/kg
  Toxicology: liver, lung, pancreas, spleen, heart and kidney (histology): liver, lung, pancreas, spleen, heart and kidney all appeared within normal limits; also recorded: The lung did have small scattered hemorrhagic areas, mainly around the alveoli and terminal bronchioles
rats; 200 mg/kg
  Toxicology: liver, lung, pancreas, spleen, heart and kidney (histology): The lung had multiple, large hemorrhagic areas, mainly in the alveolar regions with some hemosiderin deposits; also recorded: The lung contained multiple large hemorrhagic areas, mainly in the alveoli; also recorded: The liver contained small, scattered necrotic areas, generally around the portal veins
[1]
  Ames test (+)S9 0.1 mg/pl.: Mar-
  Ames test (+)S9 1 mg/pl.: Pass
  Ames test (+)S9 10 mg/pl.: Pass
  Ames test (−)S9 0.1 mg/pl.: Pass
  Ames test (−)S9 1 mg/pl.: Pass
  Ames test (−)S9 10 mg/pl.: Pass
Male Long Evans rats
  Mortality (25 mg/kg): 0/5
  Response 25 mg/kg: 2/5
  Mortality (200 mg/kg): 0/5
  Response 200 mg/kg: 5/5

## O=C(O)c1nn(Cc2ccc(Cl)cc2Cl)c2cccnc12 [JWS-1-114, 1-(2,4-dichlorobenzyl)-1H-pyrazolo[4,3-b]pyridine-3-carboxylic acid]
rats; 25 mg/kg
  Toxicology: liver, lung, pancreas, spleen, heart and kidney (histology): liver, lung, pancreas, spleen, heart and kidney that appeared within normal limits
rats; 200 mg/kg
  Toxicology: liver, lung, pancreas, spleen, heart and kidney (histology): The lung had massive pulmonary hemorrhaging around the bronchioles; also recorded: The liver had moderate sized (5-10 cell in diameter) necrotic patches generally in the periportal areas; also recorded: liver, lung, pancreas, spleen, heart and kidney that appeared within normal limits
[1]
  Ames test (+)S9 0.1 mg/pl.: Pass
  Ames test (+)S9 1 mg/pl.: Pass
  Ames test (+)S9 10 mg/pl.: Pass
  Ames test (−)S9 0.1 mg/pl.: Pass
  Ames test (−)S9 1 mg/pl.: Pass
  Ames test (−)S9 10 mg/pl.: Pass
Male Long Evans rats
  Mortality (25 mg/kg): 0/5
  Response 25 mg/kg: 1/5
  Mortality (200 mg/kg): 0/5
  Response 200 mg/kg: 0/5

## O=C(O)c1nn(Cc2ccc(Cl)cc2Cl)c2cc(C(F)(F)F)ccc12 [RC-MC-100, 1-(2,4-dichlorobenzyl)-6-trifluoromethyl-1H-indazole-3-carboxylic acid]
rats; 200 mg/kg IP, five animals
  Clinical signs after IP injection: all 5 animals tested became lethargic and ceased moving; also recorded: minor tremors in both hindlimbs which lasted approximately 30 minutes; also recorded: Two of the animals also had wet rales
  Deaths after IP injection: Three of the animals died 2-3 hours later
  Recovery after IP injection: the other two recovered and did not show any other symptoms
[1]
  Ames test (+)S9 0.1 mg/pl.: Pass
  Ames test (+)S9 1 mg/pl.: Pass
  Ames test (+)S9 10 mg/pl.: Pass
  Ames test (−)S9 0.1 mg/pl.: Pass
  Ames test (−)S9 1 mg/pl.: Pass
  Ames test (−)S9 10 mg/pl.: Pass
Male Long Evans rats
  Mortality (25 mg/kg): 0/5
  Response 25 mg/kg: 0/5
  Mortality (200 mg/kg): 0/5
  Response 200 mg/kg: 0/5

## COC(=O)c1nn(Cc2ccc(Cl)cc2Cl)c2cnccc12 [JWS-1-130, 1-(2,4-dichlorobenzyl)-1H-pyrazolo[3,4-c]pyridine-3-carboxylic acid methyl ester]
rats; 25 mg/kg
  Toxicology: liver, lung, pancreas, spleen, heart and kidney (histology): The liver appeared to have distended veins throughout, but no other abnormalities were noted; also recorded: The liver did have distended veins throughout, with small scattered patches of necrosis, usually located around the periportal areas
rats; 200 mg/kg
  Toxicology: liver, lung, pancreas, spleen, heart and kidney (histology): liver, lung, pancreas, spleen, heart and kidney all appeared within normal limits; also recorded: The liver did have distended veins throughout, with small scattered patches of necrosis, usually located around the periportal areas
[1]
  Ames test (+)S9 0.1 mg/pl.: Pass
  Ames test (+)S9 1 mg/pl.: Pass
  Ames test (+)S9 10 mg/pl.: Pass
  Ames test (−)S9 0.1 mg/pl.: Pass
  Ames test (−)S9 1 mg/pl.: Pass
  Ames test (−)S9 10 mg/pl.: Pass
Male Long Evans rats
  Mortality (25 mg/kg): 0/5
  Response 25 mg/kg: 0/5
  Mortality (200 mg/kg): 0/5
  Response 200 mg/kg: 0/5

— patent US8362031B2, “Lonidamine analogues and treatment of polycystic kidney disease” (University of Kansas, priority 2004, dated 2013)
